In EP0302934A1, “ALICYCLIC DICARBOXYLIC ACID DERIVATIVES AND MUSCLE RELAXANTS CONTAINING THEM AS EFFECTIVE INGREDIENTS” (NIPPON ZEON CO., LTD., priority 1987, dated 1988):
Entries after “also recorded” stand apart in the source; their conditions may differ.

What was measured:
Wister male rats = assay: Test method using anaemic decerebrate rigidity animals; format: in vivo; details: 3 mg/kg body weight intravenously in polyethylene glycol; three rats per group; visually followed over 60 minutes
Procedure: Each of Compound 1 and Compound 3 obtained in the synthesis examples was dissolved into 100% polyethylene glycol (molecular weight ca. 400) to prepare test drugs having a concentration of 0.3%. According to the method of Fukuda et al. (Fukuda, H., Ito, T., Hashimoto, S. and Kudo, Y., Japan. J. Pharmacol., (1974) 24; 810), the rigidity was induced in Wister male rats (body weight 250 to 350 g). Thus, by ligating both the common carotid arteries and coagulating the basilarartery by means of high frequency wave, the rigidity was induced in the fore legs of the animals. Using three animals as one group, each test drug was intravenously administered to the animals so that the amount of active ingredient came to 3 mg/kg body weight. Thereafter, whether the rigidity in the fore legs of the rat was relaxed or not was visually followed over a continuous 60 minutes.

ICR male mice = assay: Horizontal wire test; format: in vivo; details: maximum number of fallen mice out of 6 per group; 100 mg/kg-body weight orally, suspended in 0.4% aqueous carboxymethyl cellulose
Excerpt: Thereafter, at constant intervals of time, the mice were suspended by their forepaws on the metallic wire held horizontally, and the number of animals failing to hang was counted.

in vivo = assay: in vivo; set-up: species or system mice; details: mouse, po
Procedure: ICR male mice (body weight 20 to 30 g, 10 animals per one group) were used for the test.
A test drug was prepared by suspending Compound 3 into 0.4% aqueous solution of carboxymethyl cellulose, and it was orally administered.
Thereafter, the state of the animals was visually observed for 5 days. As the result, LD50 (mg/kg) was 1,000 mg/kg or more.

Row | Compound | rigidity in the fore legs relaxed or not (Wister male rats) | No. of fallen cases (ICR male mice) | LD50 at 120 h (in vivo) [mg/kg]
1 | CC1C=CCC2C(=O)N(c3cc(Cl)cc(Cl)c3)C(=O)C12 (centres unmarked) [Compound 1, N-(3^1,5^1-Dichlorophenyl)-3-methyl-4-cyclohexene-l,2-dicarboxylic Acid Imide] | the rigidity disappeared | 5 | –
2 | 2-(3',5'-Dichlorophenylcarbamoyl)-3(6)-methyl-4-cyclohexenecarboxylic Acid [Compound 5] | – | 3 | –
3 | CC1C=CC(C)C(C(=O)Nc2cc(Cl)cc(Cl)c2)C1C(=O)[O-].[Na+] (centres unmarked) [Compound 7, Sodium 2-(3',5'-Dichlorophenyl-carbamoyl)-3,6-dimethyl-4-cyclohexenecarboxylate] | – | 3 | –
4 | CC1C=CC(C)C2C(=O)N(c3cc(Cl)cc(Cl)c3)C(=O)C12 (centres unmarked) [Compound 3, N-(3',5'-Dichlorophenyl)-3,6-dimethyl-4-cyclohexene-1,2-dicarboxylic acid imide] | the rigidity disappeared; also recorded: particularly marked rigidity - eliminating effect | 3 | ≥ 1000
5 | CC1CCC(C)C2C(=O)N(c3cc(Cl)cc(Cl)c3)C(=O)C12 (centres unmarked) [Compound 4, N-(3' ,5'-Dichlorophenyl)-3,6-dimethyicyclo-hexane-l,2-dicarboxylic acid imide] | – | 3 | –
